Patent US20080275078A1, “Pyrazolo[3,4-B] Pyridine Compounds and Their Use as Pde4 Inhibitors” (Glaxo Group Limited, priority 2004, published 2008)
Each block holds one compound with its values, some of them ahead of it.

What was measured:
[1] = system: dinitrofluorobenzene (DNFB)-induced delayed type hypersensitivity (DTH) response in pigs; assay: In Vivo Assay A: pig model of atopic dermatitis, skin topical administration; conditions: for reduction in the mean summed score: ca. 2.5% (w/v) in DMSO/acetone solution, about 2 h prior to and 6 h after DNFB challenge, vs vehicle alone
Description: The pig DTH (delayed type hypersensitivity) model of contact hypersensitivity utilizes the Th2-mediated inflammatory response in pig skin to mimic the pathology of atopic dermatitis in humans. The model measures the potential anti-inflammatory effect of compounds, topically-applied to the skin, on the acute DTH (delayed type hypersensitivity) response in castrated male Yorkshire pigs.
In general in the assay, pigs (domestic Yorkshire pigs, 15-18 kg at time of sensitization, castrated males) are first sensitized by topical application of ca. 10% (w/v) dinitrofluorobenzene (DNFB) dissolved in DMSO:acetone:olive oil (ca. 1:5:3) (ca. 40 mg DNFB, 400 microlitre solution total) to the ears (outer) and groin (inner). The pigs are then challenged 12 days later with ca. 0.6% (w/v) DNFB applied to randomized sites on the shaved back of the pigs (ca. 90 micrograms/site; sites are identified and numbered by grid made with marking pen).
On the day of challenge, the treatments are performed at the challenge sites at about 2 hours prior to and about 6 hours after challenge (for DMSO/acetone solutions/suspensions containing the PDE4 inhibitor, to maximize exposure to drug), or at about 30 minutes after and about 6 hours after challenge (for topical ointments or creams containing the PDE4 inhibitor, representing a more clinically relevant treatment protocol).
One day (about 24 hrs) after challenge, and optionally again at ca. 48 hrs post challenge, test sites are visually evaluated for intensity and extent of erythema by measuring the diameter of the reaction at its widest point and assigning scores of 0 to 4 for each of erythema intensity and erythema extent. Induration (a measure of swelling) is also scored 0 to 4. Scores for erythema intensity, erythema extent and induration are assigned according to the following criteria: Intensity of Erythema: 0=normal, 1=minimal, barely visible, 2=mild, 3=moderate, 4=severe. Extent of Erythema (not raised): 0=no edema, 1=macules of pin head size, 2=lentil sized macules, 3=confluent macules, 4=diffuse over entire site. Induration (palpable): 0=normal, 1=nodules of pin head size, 2=doughy lentil sized nodules, 3=confluent firm nodules, 4=diffuse hard lesion. The summed visual score at ca. 24 hours includes the individual scores for erythema intensity, erythema extent, and induration; so the maximal summed score for each site would be 12. High summed scores can generally indicate a high inflammatory response. Visual scores are subject to some inaccuracy/error.
Differences in the summed score between adjacent control (placebo) and treatment sites on the grids are calculated. This difference value is then used to determine the percent inhibition compared to the summed score for the control (placebo) sites. The more negative the difference value, the greater the calculated inhibition. Percent inhibition of (percent inhibition compared to) the mean summed score can be calculated.
About 24 hours after challenge, treatment sites can optionally also be visually evaluated for lesion area.
The anti-inflammatory effect of the compound 4-{[1-(aminocarbonyl)-4-piperidinyl]amino}-N-[(3,4-dimethylphenyl)methyl]-1-ethyl-1H-pyrazolo[3,4-b]pyridine-5-carboxamide (“Example 2 or 2A compound”), applied topically to the skin, on the acute DTH response in castrated male Yorkshire pigs is compared to that of another PDE4 inhibitor cipamfylline (BRL-61063) and the topical immunomodulator pimecrolimus.
In the above assay, the Example 2 or 2A compound is topically administered: either (A) at ca. 2.5% (w/v) concentration in a solution of ca. 10% DMSO/90% acetone (ca. 50 microlitres or ca. 1.5 mg/site) at about 2 hours prior to and about 6 hours after the DNFB challenge; or (B) at ca. 0.5% (w/w) concentration in an ointment containing propylene glycol (PG)* (ca. 25 mg of formulation/site) at about 30 minutes after and about 6 hours after the DNFB challenge. […]

[2] = system: atopic dermatitis patients; conditions: 0.15% cream vs vehicle and hydrocortisone 17-butyrate (0.1%) cream; cited from earlier work
[3] = system: COPD patients; conditions: cited from earlier work
[4] = Preliminary test of systemic exposure after oral administration to rat(s); type: in vivo; conditions: about 1 mg/kg, free base, in approx. 10% DMSO and 90% PEG200/water (70:30), preliminary tests
Description: Although the compound of formula (I) or salt thereof may be administered orally, oral administration is not presently thought to be a preferred route of administration, at least for the compound 4-{[1-(aminocarbonyl)-4-piperidinyl]amino}-N-[(3,4-dimethylphenyl)methyl]-1-ethyl-1H-pyrazolo[3,4-b]pyridine-5-carboxamide (“free base” form) (e.g. Example 2, 2A or 2B).

[5] = Preliminary aqueous solubility screen; type: physicochemical; conditions: pH 7.4 PBS with about 5% DMSO, about room temperature, free base
Method: Aqueous solubility: A preliminary screen aims to estimate roughly the aqueous solubility of compounds by (as an approximate summary): (i) creating a ca. 10 mM solution of the compound in DMSO, (ii) diluting a portion of this DMSO solution by mixing about 19 parts by volume of pH 7.4 aqueous phosphate buffered saline (PBS) buffer with 1 part by volume of the ca. 10 mM DMSO solution, (iii) “filtering” the mixture with the aid of centrifugation, and then (iv) measuring the concentration of the dissolved compound in the “filtrate”.

[6] = Measured logD; type: physicochemical; conditions: octanol/water; pH=7.4, free base
[7] = system: atopic dermatitis patients; conditions: 0.5% ointment, twice daily topical application; cited from earlier work
[8] = biological target: T1, PDE4B (human recombinant) (Homo sapiens, UniProt Q07343); assay: Inhibition of PDE4B activity (SPA or FP assay); type: biochemical; conditions: SPA or FP assay or similar; n=1 or average of 2 or more readings; range given for the listed group of Examples; read-out: PDE4B pIC50 (±about 0.5) (converted)
T1 construct: made in house; host or cells: Saccharomyces cerevisiae strain GL62 (PDE-deficient yeast), 100,000xg supernatant of cell lysate, as described in WO 94/20079
Description: Human recombinant PDE4B, in particular the 2B splice variant thereof (HSPDE4B2B), is disclosed in WO 94/20079 and also M. M. McLaughlin et al., “A low Km, rolipram-sensitive, cAMP-specific phosphodiesterase from human brain: cloning and expression of cDNA, biochemical characterisation of recombinant protein, and tissue distribution of mRNA”, J. Biol. Chem., 1993, 268, 6470-6476. For example, in Example 1 of WO 94/20079, human recombinant PDE4B is described as being expressed in the PDE-deficient yeast Saccharomyces cerevisiae strain GL62, e.g. after induction by addition of 150 uM CuSO4, and 100,000×g supernatant fractions of yeast cell lysates are described for use in the harvesting of PDE4B enzyme.
The ability of compounds to inhibit catalytic activity at PDE4B or 4D (human recombinant), PDE3 (from bovine aorta), PDE5 (human recombinant) or PDE6 (from bovine retina) can optionally be determined by Scintillation Proximity Assay (SPA) in a 96-well format. • Test compounds (as a solution in DMSO, preferably about 2 microlitre (ul) volume of DMSO solution) are preincubated at ambient temperature (room temperature, e.g. 19-23° C.) in Wallac Isoplates (code 1450-514) with PDE enzyme in 50 mM Tris-HCl buffer pH 7.5, 8.3 mM MgCl2, 1.7 mM EGTA, 0.05% (w/v) bovine serum albumin for 10-30 minutes (usually 30 minutes). The enzyme concentration is adjusted so that no more than 20% hydrolysis of the substrate defined below occurs in control wells without compound, during the incubation. For the PDE3, PDE4B and PDE4D assays, [5′,8-^3H]Adenosine 3′,5′-cyclic phosphate (Amersham Pharmacia Biotech, code TRK.559; or Amersham Biosciences UK Ltd, Pollards Wood, Chalfont St Giles, Buckinghamshire HP8 4SP, UK) is added to give 0.05 uCi per well and about 10 nM final concentration. For the PDE5 and PDE6 assays, [8-^3H]Guanosine 3′,5′-cyclic phosphate (Amersham Pharmacia Biotech, code TRK.392) is added to give 0.05 uCi per well and about 36 nM final concentration. Plates containing assay mixture, preferably approx. 100 ul volume of assay mixture, are mixed on an orbital shaker for 5 minutes and incubated at ambient temperature for 1 hour. Phosphodiesterase SPA beads (Amersham Pharmacia Biotech, code RPNQ 0150) are added (about 1 mg per well) to terminate the assay. Plates are sealed and shaken and allowed to stand at ambient temperature for 35 minutes to 1 hour (preferably 35 minutes) to allow the beads to settle. Bound radioactive product is measured using a WALLAC TRILUX 1450 Microbeta scintillation counter. For inhibition curves, 10 concentrations (e.g. 1.5 nM-30 uM) of each compound are assayed. Curves are analysed using ActivityBase and XLfit (ID Business Solutions Limited, 2 Ocean Court, Surrey Research Park, Guildford, Surrey GU2 7QB, United Kingdom) Results are expressed as pIC50 values.
The ability of compounds to inhibit catalytic activity at PDE4B (human recombinant) or PDE4D (human recombinant) can optionally be determined by IMAP Fluorescence Polarisation (FP) assay (IMAP Explorer kit, available from Molecular Devices Corporation, Sunnydale, Calif., USA; Molecular Devices code: R8062) in a 384-well format.
The IMAP FP assay is able to measure PDE activity in an homogenous, non-radioactive assay format. The FP assay uses the ability of immobilised trivalent metal cations, coated onto nanoparticles (tiny beads), to bind the phosphate group of Fl-AMP that is produced on the hydrolysis of fluorescein-labelled (Fl) cyclic adenosine mono-phosphate (Fl-cAMP) to the non-cyclic Fl-AMP form. […] Binding of Fl-AMP product to the beads (coated with the immobilised trivalent cations) slows the rotation of the bound Fl-AMP and leads to an increase in the fluorescence polarisation ratio of parallel to perpendicular light. Inhibition of the PDE reduces/inhibits this signal increase. […]

T1 sequence (Q07343 1-564 isoform Q07343-2): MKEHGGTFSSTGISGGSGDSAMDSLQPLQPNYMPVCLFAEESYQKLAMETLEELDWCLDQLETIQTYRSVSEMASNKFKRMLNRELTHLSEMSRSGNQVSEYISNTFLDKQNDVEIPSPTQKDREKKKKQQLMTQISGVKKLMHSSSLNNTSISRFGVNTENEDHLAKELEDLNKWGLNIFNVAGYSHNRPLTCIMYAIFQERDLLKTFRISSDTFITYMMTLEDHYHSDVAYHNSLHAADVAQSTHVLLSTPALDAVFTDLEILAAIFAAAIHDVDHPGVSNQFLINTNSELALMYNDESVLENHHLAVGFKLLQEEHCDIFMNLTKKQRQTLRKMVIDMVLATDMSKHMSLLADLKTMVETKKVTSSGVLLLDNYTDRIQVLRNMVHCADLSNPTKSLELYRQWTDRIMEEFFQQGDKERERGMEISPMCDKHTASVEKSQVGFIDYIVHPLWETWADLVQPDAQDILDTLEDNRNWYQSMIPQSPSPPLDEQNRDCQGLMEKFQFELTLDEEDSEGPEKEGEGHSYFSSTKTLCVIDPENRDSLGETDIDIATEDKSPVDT

SMILES: CC[C@@H]1/C=C(\C)C[C@H](C)C[C@H](OC)[C@H]2O[C@@](O)(C(=O)C(=O)N3CCCC[C@H]3C(=O)O[C@H](/C(C)=C/[C@@H]3CC[C@H](Cl)[C@H](OC)C3)[C@H](C)[C@@H](O)CC1=O)[C@H](C)C[C@@H]2OC [pimecrolimus, reference compound]
inhibition of the summed scores ([1]; 1% (w/w) cream formulation, p<0.05 by ANOVA): about 29%

SMILES: Nc1nc2c([nH]1)c(=O)n(CC1CC1)c(=O)n2CC1CC1 [cipamfylline, reference compound]
effectiveness in the treatment of atopic dermatitis patients [2]: significantly more effective than vehicle, but significantly less effective than hydrocortisone 17-butyrate (0.1%) cream
reduction in the summed scores ([1]; ca. 0.25% (w/w) in ointment, not statistically significant): 6-7%
reduction in the mean summed score [1]: about 8%

SMILES: O=C(Nc1c(Cl)cncc1Cl)c1ccc(OC(F)F)c(OCC2CC2)c1 [roflumilast]
FEV1 in COPD patients ([3]; roflumilast, Lipworth 2005): small improvements in FEV1

systemic exposure after oral administration [4]: low systemic exposure
aqueous solubility [5]: about 60 micrograms of the compound/ml
melting point: 152 to 154 °C
logD [6]: ~3.4
SMILES: CCn1ncc2c(NC3CCN(C(N)=O)CC3)c(C(=O)NCc3ccc(C)c(C)c3)cnc21 [Example 2, 4-{[1-(aminocarbonyl)-4-piperidinyl]amino}-N-[(3,4-dimethylphenyl)methyl]-1-ethyl-1H-pyrazolo[3,4-b]pyridine-5-carboxamide]
inhibition of the mean summed score (erythema intensity, erythema extent, induration) ([1]; ca. 0.5% (w/w) in PG ointment, about 30 min and 6 h after DNFB challenge, vs placebo PG ointment, ca. 24 h, p<0.05): 13-14%
reduction in the mean summed score [1]: about 21%
lesion area ([1]; skin administration in DMSO/acetone or PG ointment, results subject to some inaccuracy/error): decrease the lesion area

SMILES: COc1ccc([C@]2(C#N)CC[C@@H](C(=O)O)CC2)cc1OC1CCCC1 [cilomilast]
forced expiratory volume (FEV1) in COPD patients ([3]; 15 mg orally twice daily): appears to improve forced expiratory volume
antiinflammatory effects in COPD patients ([3]; human, in vivo): appears to have antiinflammatory effects

SMILES: COc1ccc(C2CNC(=O)NC2)cc1O[C@H]1C[C@@H]2CC[C@H]1C2 [CP80,633]
inflammatory parameters in atopic dermatitis patients [7]: reductions of inflammatory parameters

IC50 [8]: 1 to 3.16 nM
SMILES: CCn1ncc2c(NC3CCN(C(N)=O)CC3)c(C(=O)NCc3ccc(OC)cc3)cnc21 [Example 3, 4-{[1-(aminocarbonyl)-4-piperidinyl]amino}-1-ethyl-N-{[4-(methyloxy)phenyl]methyl}-1H-pyrazolo[3,4-b]pyridine-5-carboxamide]
